Source: ChEMBL document CHEMBL4350980, “Synthesis and structure-activity relationships of small-molecular di-basic esters, amides and carbamates as flaviviral protease inhibitors” (Eur J Med Chem, 2019)
Activity calls are given as the source filed them. No cut-off for these calls is given here.

What was measured:
[1] = biological target: Genome polyprotein (dengue virus type 2) (UniProt P29990); test: (§1) Inhibition of dengue virus serotype 2 His-tagged NS2B cofactor domain-NS3 protease expressed in Escherichia coli at 50 uM using 2-Abz-Nle-Lys-Arg-Arg-Ser-(3-NO2)-Tyr-NH2 as substrate preincubated with enzyme for 15 mins followed by substrate addition measured for every 1 sec for 15 mins by fluorescence plate reader based HPLC analysis relative to control
[2] = Stability of compound in TRIS assay buffer at pH 7.5 to 9; format: physicochemical
[3] = biological target: T1, Trypsin (Homo sapiens, UniProt P07477+P07478+P35030); test: Inhibition of trypsin (unknown origin) at 50 uM using Boc-Val-Pro-Arg-AMC as substrate preincubated with enzyme for 15 mins followed by addition of substrate by fluorescence plate reader analysis relative to control; format: protein assay
[4] = Stability of compound in phosphate buffer at pH 7.5 to 11; format: physicochemical
[5] = biological target: T2, Prothrombin (Homo sapiens, UniProt P00734); test: Inhibition of thrombin (unknown origin) at 25 uM using Boc-Val-Pro-Arg-AMC as substrate preincubated with enzyme for 15 mins followed by addition of substrate by fluorescence plate reader analysis relative to control
[6] = biological target: Genome polyprotein (dengue virus type 2) (UniProt P29990); test: as §1, with “Time-dependent inhibition of dengue” for “Inhibition of dengue”, “enzyme for 20 to 40 mins followed” for “enzyme for 15 mins followed”, “HPLC analysis” for “HPLC analysis relative to control”
[7] = biological target: Genome polyprotein (dengue virus type 2) (UniProt P29990); test: Reversible covalent binding affinity at dengue virus serotype 2 His-tagged NS2B cofactor domain-NS3 protease expressed in Escherichia coli assessed as acyl-enzyme adduct formation at 100 uM incubated for 5 to 24 hrs by ESI-MS analysis
[8] = biological target: Genome polyprotein (West Nile virus) (UniProt P06935); test: as §1, with “West Nile” for “dengue”, “virus” for “virus serotype 2”, “2-Abz-Gly-Leu-Lys-Arg-Gly-Gly-(3-NO2)-Tyr-NH2” for “2-Abz-Nle-Lys-Arg-Arg-Ser-(3-NO2)-Tyr-NH2”, “microplate” for “plate”
[9] = biological target: Genome polyprotein (West Nile virus) (UniProt P06935); test: Inhibition of West Nile virus His-tagged NS2B cofactor domain-NS3 protease expressed in Escherichia coli at 1 mM using 2-Abz-Gly-Leu-Lys-Arg-Gly-Gly-(3-NO2)-Tyr-NH2 as substrate preincubated with enzyme for 15 mins followed by substrate addition measured for every 1 sec for 15 mins by fluorescence microplate reader based HPLC analysis relative to control
[10] = biological target: T1, Trypsin; test: Inhibition of trypsin (unknown origin) at 1 mM using Boc-Val-Pro-Arg-AMC as substrate preincubated with enzyme for 15 mins followed by addition of substrate by fluorescence plate reader analysis relative to control; format: protein assay
[11] = biological target: T2, Prothrombin; test: Inhibition of thrombin (unknown origin) at 500 uM using Boc-Val-Pro-Arg-AMC as substrate preincubated with enzyme for 15 mins followed by addition of substrate by fluorescence plate reader analysis relative to control
[12] = biological target: Genome polyprotein (dengue virus type 2) (UniProt P29990); test: as §1, with “1 mM” for “50 uM”
[13] = biological target: T1, Trypsin; test: Inhibition of trypsin (unknown origin) using Boc-Val-Pro-Arg-AMC as substrate preincubated with enzyme for 15 mins followed by addition of substrate by fluorescence plate reader analysis; format: protein assay
[14] = biological target: Genome polyprotein (dengue virus type 2) (UniProt P29990); test: Reversible covalent binding affinity at dengue virus serotype 2 His-tagged NS2B cofactor domain-NS3 protease expressed in Escherichia coli assessed as acyl-enzyme adduct formation at 100 uM incubated for 2 hrs by ESI-MS analysis
[15] = biological target: Genome polyprotein (dengue virus type 2) (UniProt P29990); test: Reversible covalent binding affinity at dengue virus serotype 2 His-tagged NS2B cofactor domain-NS3 protease expressed in Escherichia coli assessed as acyl-enzyme adduct formation at 100 uM incubated for 24 hrs by ESI-MS analysis
[16] = biological target: T2, Prothrombin; test: Inhibition of thrombin (unknown origin) using Boc-Val-Pro-Arg-AMC as substrate preincubated with enzyme for 15 mins followed by addition of substrate by fluorescence plate reader analysis
[17] = system: dengue virus type 2; test: Reversible covalent binding affinity at dengue virus serotype 2 His-tagged NS2B cofactor domain-NS3 protease S135A mutant expressed in Escherichia coli assessed as acyl-enzyme adduct formation at 100 uM incubated for 24 hrs by ESI-MS analysis
[18] = biological target: Genome polyprotein (dengue virus type 2) (UniProt P29990); test: Time-dependent inhibition of dengue virus serotype 2 His-tagged NS2B cofactor domain-NS3 protease expressed in Escherichia coli at 200 uM using 2-Abz-Nle-Lys-Arg-Arg-Ser-(3-NO2)-Tyr-NH2 as substrate preincubated with enzyme for 20 to 40 mins followed by substrate addition measured for every 1 sec for 15 mins by fluorescence plate reader based HPLC analysis
[19] = biological target: Genome polyprotein (dengue virus type 2) (UniProt P29990); test: Reversible covalent inhibition of dengue virus serotype 2 His-tagged NS2B catalytic domain-NS3 protease expressed in Escherichia coli using 2-Abz-Nle-Lys-Arg-Arg-Ser-(3-NO2)-Tyr-NH2 as substrate preincubated initially at 100 uM with enzyme for 1 hr followed by dilution with assay buffer to achieve compound concentration of 3.33 uM prior to substrate addition measured immediately after dilution by fluorescence plate reader based HPLC analysis
[20] = Stability of compound in phosphate buffer assessed as half life at pH 11; format: physicochemical
[21] = biological target: Genome polyprotein (dengue virus type 2) (UniProt P29990); test: Reversible covalent inhibition of dengue virus serotype 2 His-tagged NS2B catalytic domain-NS3 protease expressed in Escherichia coli at 100 uM using 2-Abz-Nle-Lys-Arg-Arg-Ser-(3-NO2)-Tyr-NH2 as substrate preincubated with enzyme for 1 hr followed by dilution prior to substrate addition measured at 120 mins after dilution by fluorescence plate reader based HPLC analysis
[22] = Stability of compound in phosphate buffer at pH 9; format: physicochemical
[23] = biological target: Genome polyprotein (dengue virus type 2) (UniProt P29990); test: Reversible covalent inhibition of dengue virus serotype 2 His-tagged NS2B catalytic domain-NS3 protease expressed in Escherichia coli using 2-Abz-Nle-Lys-Arg-Arg-Ser-(3-NO2)-Tyr-NH2 as substrate preincubated initially at 100 uM with enzyme for 1 hr followed by dilution with assay buffer to achieve compound concentration of 3.33 uM prior to substrate addition measured after dilution over time by fluorescence plate reader based HPLC analysis
[24] = biological target: Genome polyprotein (dengue virus type 2) (UniProt P29990); test: Inhibition of dengue virus serotype 2 His-tagged NS2B catalytic domain-NS3 protease expressed in Escherichia coli at 100 uM using 2-Abz-Nle-Lys-Arg-Arg-Ser-(3-NO2)-Tyr-NH2 as substrate preincubated with enzyme for 1 hr followed by substrate addition measured for every 1 sec for 15 mins by fluorescence plate reader based HPLC analysis relative to control
[25] = biological target: Genome polyprotein (dengue virus type 2) (UniProt P29990); test: Reversible covalent binding affinity at dengue virus serotype 2 His-tagged NS2B cofactor domain-NS3 protease expressed in Escherichia coli assessed as acyl-enzyme adduct formation at 100 uM incubated for 20 hrs by ESI-MS analysis
[26] = Stability of compound in TRIS buffer assessed as half life at pH 9; format: physicochemical
[27] = biological target: Genome polyprotein (dengue virus type 2) (UniProt P29990); test: Reversible covalent binding affinity at dengue virus serotype 2 His-tagged NS2B cofactor domain-NS3 protease expressed in Escherichia coli assessed as acyl-enzyme adduct formation at 100 uM incubated for 5 to 30 mins by ESI-MS analysis
[28] = Stability of compound in TRIS buffer at pH 7.5; format: physicochemical
[29] = biological target: Genome polyprotein (dengue virus type 2, UniProt P29990); test: as §1, with “coli” for “coli at 50 uM”, “analysis” for “analysis relative to control”

Genome polyprotein (West Nile virus), sequence (P06935 whole entry, the tested form may be a part): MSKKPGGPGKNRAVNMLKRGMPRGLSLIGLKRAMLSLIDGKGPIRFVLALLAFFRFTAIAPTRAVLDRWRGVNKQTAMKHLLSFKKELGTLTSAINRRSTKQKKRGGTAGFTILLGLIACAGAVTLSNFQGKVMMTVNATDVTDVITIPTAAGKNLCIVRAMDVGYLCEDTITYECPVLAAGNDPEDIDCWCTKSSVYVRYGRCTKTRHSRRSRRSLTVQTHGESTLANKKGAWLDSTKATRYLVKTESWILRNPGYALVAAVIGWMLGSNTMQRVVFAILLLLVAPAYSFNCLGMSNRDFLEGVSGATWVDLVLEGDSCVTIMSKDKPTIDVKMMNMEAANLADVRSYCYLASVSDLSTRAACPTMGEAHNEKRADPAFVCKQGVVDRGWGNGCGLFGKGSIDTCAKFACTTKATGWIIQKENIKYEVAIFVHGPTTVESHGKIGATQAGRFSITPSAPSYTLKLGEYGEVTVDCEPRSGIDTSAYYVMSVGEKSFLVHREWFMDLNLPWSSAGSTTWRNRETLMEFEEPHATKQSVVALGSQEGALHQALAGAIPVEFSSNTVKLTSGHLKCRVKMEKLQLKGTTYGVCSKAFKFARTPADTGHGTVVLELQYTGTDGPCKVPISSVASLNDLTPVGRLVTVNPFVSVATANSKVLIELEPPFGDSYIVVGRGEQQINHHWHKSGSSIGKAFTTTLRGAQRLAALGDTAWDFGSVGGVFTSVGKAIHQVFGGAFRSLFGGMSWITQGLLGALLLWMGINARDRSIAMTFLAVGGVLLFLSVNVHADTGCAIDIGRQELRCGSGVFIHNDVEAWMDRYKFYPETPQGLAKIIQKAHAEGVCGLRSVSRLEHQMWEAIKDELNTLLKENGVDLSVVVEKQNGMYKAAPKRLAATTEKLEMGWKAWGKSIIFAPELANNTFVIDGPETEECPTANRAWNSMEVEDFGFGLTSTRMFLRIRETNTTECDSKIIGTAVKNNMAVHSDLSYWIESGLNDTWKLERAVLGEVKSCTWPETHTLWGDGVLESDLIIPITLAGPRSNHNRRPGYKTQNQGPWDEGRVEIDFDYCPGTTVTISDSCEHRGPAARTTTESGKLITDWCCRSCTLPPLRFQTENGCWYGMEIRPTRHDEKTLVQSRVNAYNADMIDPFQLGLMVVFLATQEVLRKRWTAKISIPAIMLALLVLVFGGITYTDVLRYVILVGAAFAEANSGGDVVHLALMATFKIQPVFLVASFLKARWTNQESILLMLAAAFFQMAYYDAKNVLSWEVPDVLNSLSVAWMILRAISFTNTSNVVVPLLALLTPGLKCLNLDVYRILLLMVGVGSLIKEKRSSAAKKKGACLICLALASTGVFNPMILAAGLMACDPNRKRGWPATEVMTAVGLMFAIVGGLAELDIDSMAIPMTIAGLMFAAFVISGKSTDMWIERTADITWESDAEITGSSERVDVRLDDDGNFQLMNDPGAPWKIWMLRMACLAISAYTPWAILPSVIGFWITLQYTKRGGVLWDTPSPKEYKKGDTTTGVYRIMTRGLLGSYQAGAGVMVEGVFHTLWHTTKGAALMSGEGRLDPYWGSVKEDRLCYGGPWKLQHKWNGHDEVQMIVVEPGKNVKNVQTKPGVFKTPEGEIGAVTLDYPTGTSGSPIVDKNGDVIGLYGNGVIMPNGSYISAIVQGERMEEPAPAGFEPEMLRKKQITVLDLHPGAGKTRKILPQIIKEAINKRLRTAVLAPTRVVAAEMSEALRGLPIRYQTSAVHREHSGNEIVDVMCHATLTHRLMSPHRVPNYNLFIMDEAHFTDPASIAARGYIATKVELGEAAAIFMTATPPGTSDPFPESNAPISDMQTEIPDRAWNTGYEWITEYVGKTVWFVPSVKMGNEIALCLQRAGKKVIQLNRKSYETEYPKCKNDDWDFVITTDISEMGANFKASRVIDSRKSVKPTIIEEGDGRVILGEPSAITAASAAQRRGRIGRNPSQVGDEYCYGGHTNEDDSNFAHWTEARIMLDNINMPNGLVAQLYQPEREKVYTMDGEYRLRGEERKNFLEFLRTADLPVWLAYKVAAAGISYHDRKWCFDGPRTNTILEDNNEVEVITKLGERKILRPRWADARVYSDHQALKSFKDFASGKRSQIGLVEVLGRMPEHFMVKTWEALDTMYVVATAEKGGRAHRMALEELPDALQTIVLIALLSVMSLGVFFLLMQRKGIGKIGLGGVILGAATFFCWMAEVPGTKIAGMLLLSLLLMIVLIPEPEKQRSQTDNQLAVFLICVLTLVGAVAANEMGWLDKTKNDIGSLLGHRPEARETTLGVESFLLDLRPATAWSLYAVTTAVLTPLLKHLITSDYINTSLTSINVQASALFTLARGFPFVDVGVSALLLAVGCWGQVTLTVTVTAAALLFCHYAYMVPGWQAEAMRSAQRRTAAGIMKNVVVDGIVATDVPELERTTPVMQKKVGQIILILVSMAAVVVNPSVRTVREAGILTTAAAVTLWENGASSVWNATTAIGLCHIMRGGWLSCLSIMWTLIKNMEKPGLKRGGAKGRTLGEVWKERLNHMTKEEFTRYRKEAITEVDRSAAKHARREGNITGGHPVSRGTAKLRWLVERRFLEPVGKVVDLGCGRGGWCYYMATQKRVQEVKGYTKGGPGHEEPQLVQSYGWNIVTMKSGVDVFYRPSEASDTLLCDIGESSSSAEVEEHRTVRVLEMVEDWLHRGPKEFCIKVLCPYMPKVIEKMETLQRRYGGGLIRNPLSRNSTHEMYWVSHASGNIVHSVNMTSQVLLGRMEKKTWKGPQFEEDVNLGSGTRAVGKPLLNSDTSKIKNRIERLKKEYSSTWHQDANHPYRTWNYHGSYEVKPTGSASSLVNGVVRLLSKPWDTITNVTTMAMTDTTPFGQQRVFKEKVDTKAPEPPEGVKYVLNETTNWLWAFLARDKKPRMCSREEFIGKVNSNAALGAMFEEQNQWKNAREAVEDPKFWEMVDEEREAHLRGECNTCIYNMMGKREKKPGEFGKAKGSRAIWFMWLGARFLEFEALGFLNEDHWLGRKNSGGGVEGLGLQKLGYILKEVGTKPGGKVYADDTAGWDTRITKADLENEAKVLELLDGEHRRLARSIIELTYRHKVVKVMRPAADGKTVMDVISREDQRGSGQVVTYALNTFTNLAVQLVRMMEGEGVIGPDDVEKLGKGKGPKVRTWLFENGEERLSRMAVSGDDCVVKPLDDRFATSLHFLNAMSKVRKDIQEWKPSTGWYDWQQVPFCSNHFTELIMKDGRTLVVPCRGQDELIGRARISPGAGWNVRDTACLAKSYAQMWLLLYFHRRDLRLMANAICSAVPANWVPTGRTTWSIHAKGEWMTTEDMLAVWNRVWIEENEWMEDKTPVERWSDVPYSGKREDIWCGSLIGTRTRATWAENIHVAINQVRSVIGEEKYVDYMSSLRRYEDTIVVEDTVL

Row | SMILES | inhibition [1] [%] | inhibition [3] [%] | inhibition [5] [%] | inhibition [8] [%] | inhibition [9] [%] | inhibition [10] [%] | inhibition [11] [%] | inhibition [12] [%] | IC50 [13] [µM] | further results
1 | N=C(N)Nc1ccc(NC(=O)c2ccc(NC(=N)N)cc2)cc1 | 23.2 | 87.2 | 23.9 | 17.9 | – | – | – | – | – | Stability [2]: Stable; Stability [4]: Stable; TDI [6]: inactive; Activity [7]: inactive
2 | N=C(N)Nc1ccc(C(=O)Oc2cccc(NC(=N)N)c2)cc1 | 51.3 | 100 | 100 | 17.5 | – | – | – | – | – | –
3 | CN(C(=O)Oc1ccc(CN)cc1)c1ccc(N)cc1 | – | – | – | – | 59.3 | 95.6 | 46.9 | 22.9 | – | –
4 | N=C(N)Nc1ccc(OC(=O)c2ccc(N)cc2)cc1 | 45.4 | 101 | 76.7 | < 5 | – | – | – | – | 0.00278 | Activity [14]: inactive; Activity [15]: Active; IC50 [16]: 17.6 µM; Activity [17]: inactive; TDI [6]: Active
5 | Nc1ccc(NC(=O)Oc2ccc(N)cc2)cc1 | – | – | – | – | 72.8 | 99.2 | 83.3 | 33.7 | – | –
6 | N=C(N)NCCCCOC(=O)c1ccc(NC(=N)N)cc1 | 49 | 84 | 27.3 | 17.1 | – | – | – | – | 8.27 | –
7 | N=C(N)Nc1ccc(NC(=O)Oc2ccc(N)cc2)cc1 | 52 | 101 | 12.1 | 61.9 | 61.9 | 101 | 12.1 | 52 | 46.3 | TDI [18]: inactive; Activity [7]: inactive
8 | CN(C(=O)Oc1ccc(N)cc1)c1ccc(N)cc1 | – | – | – | – | 68 | 95.9 | 72.7 | 29.8 | – | –
9 | N=C(N)NCCCCC(=O)Oc1ccc(NC(=N)N)cc1 | 4.6 | 65.9 | 72.5 | < 5 | – | – | – | – | – | –
10 | CN(C(=O)Oc1ccc(CN)cc1)c1ccc(CN)cc1 | – | – | – | – | 62.9 | 43.9 | 12.2 | 31.3 | – | –
11 | N=C(N)Nc1ccc(C(=O)Oc2ccc(CN)cc2)cc1 | 40.1 | 101 | 92.5 | 36.5 | – | – | – | – | 0.00156 | IC50 [16]: 0.53 µM; TDI [6]: Active
12 | N=C(N)NCCCOC(=O)c1ccc(NC(=N)N)cc1 | 56.8 | 78.9 | 22.8 | < 5 | – | – | – | – | 9.84 | Stability [2]: Stable; Stability [4]: Stable
13 | N=C(N)NCc1ccc(NC(=O)Oc2ccc(N)cc2)cc1 | – | – | – | – | 68.8 | 98.4 | 44.4 | 60.8 | – | –
14 | N=C(N)Nc1ccc(C(=O)Nc2cccc(NC(=N)N)c2)cc1 | 36.8 | 94.6 | 16.4 | < 5 | – | – | – | – | 23.9 | –
15 | CN(C)C(=O)Oc1ccc(NC(=N)N)cc1C(=O)Nc1ccc(CN)cc1 | – | – | – | – | 76.1 | 19.3 | 24.3 | 56 | – | –
16 | N=C(N)Nc1ccc(OC(=O)c2ccc(NC(=N)N)cc2)cc1 | 98.1 | 100 | 99 | 29.8 | – | – | – | – | 0.00135 | inhibition [19]: Active; half-life [20]: 17.8 min; inhibition [21]: inactive; Stability [22]: Stable; inhibition [23]: inactive; inhibition [24]: 100%; Activity [25]: inactive; half-life [26]: 16.8 min; IC50 [16]: 4.08 µM; Activity [27]: Active; Stability [28]: Stable; IC50 [29]: 14.4 µM; Activity [17]: inactive; TDI [6]: Active
17 | N=C(N)Nc1ccc(C(=O)Oc2ccc(N)cc2)cc1 | 8.8 | 102 | 97.1 | < 5 | – | – | – | – | 0.028 | Stability [2]: Stable; IC50 [16]: 0.8 µM; Stability [4]: Stable
18 | CN(C)C(=O)Oc1cc(NC(=N)N)ccc1C(=O)Nc1ccc(CN)cc1 | – | – | – | – | 73.3 | 43.7 | 12.4 | 74.4 | – | –
19 | CN(C)C(=O)Oc1cc(NC(=N)N)ccc1NC(=O)c1ccc(NC(=N)N)cc1 | – | – | – | – | 23.9 | 99.2 | 67.8 | 20.2 | – | –
20 | N=C(N)NCCCC(=O)Oc1ccc(NC(=N)N)cc1 | 4.2 | 18.3 | 13.2 | < 5 | – | – | – | – | – | –
21 | CN(C)C(=O)COC(=O)Cc1ccc(OC(=O)c2ccc(NC(=N)N)cc2)cc1 [CAMOSTAT] | 19.6 | 100 | 94 | 12.6 | – | – | – | – | 0.0035 | –
